In this assay the target is T1, human Kv 1.5 (Homo sapiens, UniProt P22460).
T1 construct: expressed in transfected cells; host or cells: mouse L-929 fibroblasts stably expressing human Kv1.5
T1 sequence (P22460 whole entry): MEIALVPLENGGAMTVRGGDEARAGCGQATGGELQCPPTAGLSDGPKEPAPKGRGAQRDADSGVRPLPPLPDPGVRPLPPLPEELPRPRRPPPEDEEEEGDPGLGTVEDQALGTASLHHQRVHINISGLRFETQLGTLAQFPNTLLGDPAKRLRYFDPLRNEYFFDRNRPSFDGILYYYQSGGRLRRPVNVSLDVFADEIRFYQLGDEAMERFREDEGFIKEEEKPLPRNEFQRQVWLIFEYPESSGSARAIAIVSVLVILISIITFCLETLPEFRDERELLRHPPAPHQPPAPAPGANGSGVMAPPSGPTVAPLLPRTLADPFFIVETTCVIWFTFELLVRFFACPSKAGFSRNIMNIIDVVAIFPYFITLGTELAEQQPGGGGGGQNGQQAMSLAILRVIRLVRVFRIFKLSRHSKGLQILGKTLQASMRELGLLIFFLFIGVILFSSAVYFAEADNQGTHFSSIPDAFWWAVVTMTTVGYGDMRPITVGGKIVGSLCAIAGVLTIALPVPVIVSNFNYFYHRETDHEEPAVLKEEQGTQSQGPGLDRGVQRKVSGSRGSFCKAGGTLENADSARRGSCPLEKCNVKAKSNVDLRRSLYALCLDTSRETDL
Put plainly: Block of IKur current in patch clamped L-929 cells stably expressing human Kv1.5. The format is cell-based. Particulars: L929, 0.3 μM; patch clamped mammalian L-929 cells expressing human Kv1.5 (IKur); read-out: KV1_5% Inh L929 @0.3 μM. The source says:
Synders, D. J. et al., “A rapidly activating and slowly inactivating potassium channel cloned from human heart: functional analysis after stable mammalian cell culture expression”, J. Gen. Physiol., 101:513-543 (1993). […]
A general note: The patch-clamp technique gives a direct electrical read-out from membranes.
Take `NS(=O)(=O)c1cncc(-c2cnc(NCc3ccccc3)c3c(-c4ccccc4)cccc23)c1` [Example 15, 5-(1-(Benzylamino)-8-phenylisoquinolin-4-yl)pyridine-3-sulfonamide]: the inhibition at 0.3 µM worked out at 96.2%.
As to `CS(=O)(=O)Nc1ccc(-c2cc3cccc(-c4ccccc4)c3c(NCc3ccccn3)n2)cn1` [Example 63, N-(5-(8-phenyl-1-(pyridin-2-ylmethylamino)isoquinolin-3-yl)pyridin-2-yl)methanesulfonamide], the inhibition at 0.3 µM is 53.2%.
The result for `CC(=O)Nc1cccc(-c2c(Cl)nc(NCc3ccccn3)c3c(-c4ccccc4)cccc23)c1` [Example 60, N-(3-(3-chloro-8-phenyl-1-(pyridin-2-ylmethylamino)isoquinolin-4-yl)phenyl)acetamide] reads 96.2%; that for `NS(=O)(=O)c1cncc(-c2cc3cccc(-c4ccccc4)c3c(N[C@H]3CCN(Cc4ccccc4)C3)n2)c1` [Example 71, (S)-5-(1-(1-benzylpyrrolidin-3-ylamino)-8-phenylisoquinolin-3-yl)pyridine-3-sulfonamide], 67.7%; that for `NS(=O)(=O)c1cncc(-c2cc3cccc(-c4ccccc4)c3c(NCc3ccccn3)n2)c1` [Example 1, 5-(8-Phenyl-1-(pyridin-2-ylmethylamino)isoquinolin-3-yl)pyridine-3-sulfonamide], 95.1%.
The result for `CC(=O)Nc1cncc(-c2cc3cccc(-c4ccccc4)c3c(NCc3ccccn3)n2)c1` [Example 3, N-(5-(8-Phenyl-1-(pyridin-2-ylmethylamino)isoquinolin-3-yl)pyridin-3-yl)acetamide] reads 71.9%; that for `NS(=O)(=O)c1cccc(-c2cc3cccc(-c4ccccc4)c3c(NCCCc3ccccc3)n2)c1` [Example 44, 3-(8-phenyl-1-(3-phenylpropylamino)isoquinolin-3-yl)benzenesulfonamide], 18.6%; that for `NC(=O)c1ccc(-c2c(Cl)nc(NCc3ccccn3)c3c(-c4ccccc4)cccc23)cc1` [Example 57, 4-(3-chloro-8-phenyl-1-(pyridin-2-ylmethylamino)isoquinolin-4-yl)benzamide], 98.6%.
With `NS(=O)(=O)c1ccc(-c2cnc(NCc3ccccn3)c3c(-c4ccccc4)cccc23)cc1` [Example 76, 4-(8-phenyl-1-(pyridin-2-ylmethylamino)isoquinolin-4-yl)benzenesulfonamide], the inhibition at 0.3 µM was found to be 97.2%.
`NS(=O)(=O)Nc1cncc(-c2cc3cccc(-c4ccccc4)c3c(NCc3ccccn3)n2)c1` [Example 5]: the inhibition at 0.3 µM was determined as 75.6%.
